Data published in patent publication US10358434B2, “2-(3-pyridinyl)-1H-benzimidazole derivative compound and medicament containing same” (NIHON MEDI-PHYSICS CO., LTD., priority 2014, dated 2019).

How the values were obtained:
[1] = test system: human adrenal gland section expressing aldosterone-producing adenoma; assay: In vitro autoradiography using human adrenal adenoma; format: binding; conditions: section of FIG. 17(b)
Procedure, shortened: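 Autoradiography readout: PSL in equal-sized ROIs over adenoma (B2) and normal adrenal cortex (B1), expressed as B2/B1 and decay-corrected using half-life, applied activity and plate contact time. Tissue was surgically excised human adrenal, frozen and cut at 7 μm, incubated 10 min with 5-33 kBq/mL tracer in BSA-containing PBS, then imaged after 16-20 h exposure.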

[2] = In vivo kinetics experiment (radioactivity distribution); set-up: species or system Wistar male rat; conditions: rat i.v., mean ± SD
Procedure, shortened: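 Tissue radioactivity (% ID/g) and adrenal-to-blood, liver, kidney, small intestine, muscle and fat ratios determined at 10, 30 and 60 min post-dose. Tracers (approximately 1 to 3.7 MBq, saline with 1 w/v % ascorbic acid) injected i.v. into caudal vein of anesthetized 9-week male Wistar rats; organs excised, weighed, counted.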

[3] = Plasma stability evaluation (TLC analysis); format: in vitro ADME; conditions: 37° C., 60 minutes, TLC analysis
Procedure, shortened: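 TLC analysis, using each compound's synthesis conditions, judged stability after methanol was added and samples were centrifuged to remove protein. Beforehand, each tracer had spent 60 minutes at 37° C in pooled heparinized normal human plasma.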

COc1cc([123I])cc2c1nc(-c1cncc(Cn3ccnc3)c1)n2C1CC1 [[^123I] 609, 1-Cyclopropyl-2-[5-(imidazol-1-ylmethyl)pyridin-3-yl]-6-[^123I]iodo-4-methoxybenzimidazole]
B2/B1 accumulation ratio [1]: 0.85 | B2 (PSL value, aldosterone-producing adenoma) ([1]; site 71b): 3805 | B1 (PSL value, normal adrenal cortex) ([1]; site 72b): 4479 | Adrenal gland/blood ratio of radioactivity accumulation ([2]; 10 min after administration): 70.18 ± 9.10 | Adrenal gland/fat ratio of radioactivity accumulation ([2]; 10 min after administration): 92.34 ± 17.88 | Adrenal gland/kidney ratio of radioactivity accumulation ([2]; 10 min after administration): 7.38 ± 1.46 | Adrenal gland/liver ratio of radioactivity accumulation ([2]; 10 min after administration): 1.55 ± 0.09 | Adrenal gland/muscle ratio of radioactivity accumulation ([2]; 10 min after administration): 46.03 ± 17.74 | Adrenal gland/small intestine ratio of radioactivity accumulation ([2]; 10 min after administration): 5.04 ± 0.97 | Radioactivity distribution Adrenal gland ([2]; 10 min after administration): 8.54 ± 1.17 % ID/g | Radioactivity distribution Bladder (including urine) ([2]; 10 min after administration): 0.17 ± 0.08 % ID/g | Radioactivity distribution Blood ([2]; 10 min after administration): 0.12 ± 0.00 % ID/g | Radioactivity distribution Fat ([2]; 10 min after administration): 0.09 ± 0.01 % ID/g | Radioactivity distribution Femur ([2]; 10 min after administration): 0.37 ± 0.06 % ID/g | Radioactivity distribution Heart ([2]; 10 min after administration): 0.36 ± 0.01 % ID/g | Radioactivity distribution Kidney ([2]; 10 min after administration): 1.17 ± 0.08 % ID/g | Radioactivity distribution Large intestine ([2]; 10 min after administration): 0.16 ± 0.01 % ID/g | Radioactivity distribution Liver ([2]; 10 min after administration): 5.50 ± 0.46 % ID/g | Radioactivity distribution Lung ([2]; 10 min after administration): 0.51 ± 0.04 % ID/g | Radioactivity distribution Muscle (lower limbs) ([2]; 10 min after administration): 0.20 ± 0.06 % ID/g | Radioactivity distribution Remaining whole body ([2]; 10 min after administration): 0.20 ± 0.03 % ID/g | Radioactivity distribution Small intestine ([2]; 10 min after administration): 1.71 ± 0.18 % ID/g | Radioactivity distribution Spleen ([2]; 10 min after administration): 0.82 ± 0.05 % ID/g | Radioactivity distribution Stomach ([2]; 10 min after administration): 0.65 ± 0.25 % ID/g | Radioactivity distribution Testis ([2]; 10 min after administration): 0.05 ± 0.00 % ID/g | Radioactivity distribution Whole brain ([2]; 10 min after administration): 0.02 ± 0.00 % ID/g | Adrenal gland/blood ratio of radioactivity accumulation ([2]; 30 min after administration): 78.36 ± 23.36 | Adrenal gland/fat ratio of radioactivity accumulation ([2]; 30 min after administration): 110.76 ± 35.85 | Adrenal gland/kidney ratio of radioactivity accumulation ([2]; 30 min after administration): 11.13 ± 2.62 | Adrenal gland/liver ratio of radioactivity accumulation ([2]; 30 min after administration): 2.54 ± 0.51 | Adrenal gland/muscle ratio of radioactivity accumulation ([2]; 30 min after administration): 66.27 ± 15.78 | Adrenal gland/small intestine ratio of radioactivity accumulation ([2]; 30 min after administration): 2.54 ± 0.80 | Radioactivity distribution Adrenal gland ([2]; 30 min after administration): 11.21 ± 3.24 % ID/g | Radioactivity distribution Bladder (including urine) ([2]; 30 min after administration): 0.80 ± 0.10 % ID/g | Radioactivity distribution Blood ([2]; 30 min after administration): 0.14 ± 0.01 % ID/g | Radioactivity distribution Fat ([2]; 30 min after administration): 0.10 ± 0.02 % ID/g | Radioactivity distribution Femur ([2]; 30 min after administration): 0.29 ± 0.04 % ID/g | Radioactivity distribution Heart ([2]; 30 min after administration): 0.36 ± 0.02 % ID/g | Radioactivity distribution Kidney ([2]; 30 min after administration): 1.00 ± 0.07 % ID/g | Radioactivity distribution Large intestine ([2]; 30 min after administration): 0.18 ± 0.03 % ID/g | Radioactivity distribution Liver ([2]; 30 min after administration): 4.36 ± 0.46 % ID/g | Radioactivity distribution Lung ([2]; 30 min after administration): 0.42 ± 0.05 % ID/g | Radioactivity distribution Muscle (lower limbs) ([2]; 30 min after administration): 0.17 ± 0.03 % ID/g | Radioactivity distribution Remaining whole body ([2]; 30 min after administration): 0.14 ± 0.01 % ID/g | Radioactivity distribution Small intestine ([2]; 30 min after administration): 4.44 ± 0.63 % ID/g | Radioactivity distribution Spleen ([2]; 30 min after administration): 0.43 ± 0.03 % ID/g | Radioactivity distribution Stomach ([2]; 30 min after administration): 1.27 ± 0.17 % ID/g | Radioactivity distribution Testis ([2]; 30 min after administration): 0.07 ± 0.01 % ID/g | Radioactivity distribution Whole brain ([2]; 30 min after administration): 0.02 ± 0.00 % ID/g | Adrenal gland/blood ratio of radioactivity accumulation ([2]; 60 min after administration): 87.48 ± 12.64 | Adrenal gland/fat ratio of radioactivity accumulation ([2]; 60 min after administration): 147.76 ± 20.75 | Adrenal gland/kidney ratio of radioactivity accumulation ([2]; 60 min after administration): 13.00 ± 2.52 | Adrenal gland/liver ratio of radioactivity accumulation ([2]; 60 min after administration): 3.99 ± 0.57 | Adrenal gland/muscle ratio of radioactivity accumulation ([2]; 60 min after administration): 103.59 ± 13.53 | Adrenal gland/small intestine ratio of radioactivity accumulation ([2]; 60 min after administration): 1.53 ± 0.14 | Radioactivity distribution Adrenal gland ([2]; 60 min after administration): 11.04 ± 1.72 % ID/g | Radioactivity distribution Bladder (including urine) ([2]; 60 min after administration): 2.03 ± 0.70 % ID/g | Radioactivity distribution Blood ([2]; 60 min after administration): 0.13 ± 0.00 % ID/g | Radioactivity distribution Fat ([2]; 60 min after administration): 0.07 ± 0.01 % ID/g | Radioactivity distribution Femur ([2]; 60 min after administration): 0.33 ± 0.03 % ID/g | Radioactivity distribution Heart ([2]; 60 min after administration): 0.33 ± 0.02 % ID/g | Radioactivity distribution Kidney ([2]; 60 min after administration): 0.85 ± 0.03 % ID/g | Radioactivity distribution Large intestine ([2]; 60 min after administration): 0.63 ± 0.43 % ID/g | Radioactivity distribution Liver ([2]; 60 min after administration): 2.77 ± 0.15 % ID/g | Radioactivity distribution Lung ([2]; 60 min after administration): 0.38 ± 0.02 % ID/g | Radioactivity distribution Muscle (lower limbs) ([2]; 60 min after administration): 0.11 ± 0.00 % ID/g | Radioactivity distribution Remaining whole body ([2]; 60 min after administration): 0.10 ± 0.00 % ID/g | Radioactivity distribution Small intestine ([2]; 60 min after administration): 7.17 ± 0.45 % ID/g | Radioactivity distribution Spleen ([2]; 60 min after administration): 0.30 ± 0.01 % ID/g | Radioactivity distribution Stomach ([2]; 60 min after administration): 1.47 ± 0.33 % ID/g | Radioactivity distribution Testis ([2]; 60 min after administration): 0.07 ± 0.01 % ID/g | Radioactivity distribution Whole brain ([2]; 60 min after administration): 0.01 ± 0.00 % ID/g | Radiochemical purity after incubation in human plasma [3]: 86%
